The text below walks through data of patent US12589094B2, “Concomitant administration of glucocorticoid receptor modulator relacorilant and paclitaxel, a dual substrate of CYP2C8 and CYP3A4” (Corcept Therapeutics Incorporated, priority 2020, dated 2026).

Values joined by “and” are separate entries in the source; they are usually repeats but may differ in a detail not shown here. Equal values may be shown once. “Also recorded” adds a separate entry of the source.

Series [1] is described as follows: Pharmacokinetics of nab-paclitaxel alone or with relacorilant in patients with advanced solid tumors (Study CORT125134-550). It counts as in vivo, human. Particulars: cancer patients; same dose administered alone as comparison.
Description: The combination of relacorilant and nab-paclitaxel has been evaluated in patients with advanced solid tumors.
In series [2] the target is T1, CYP2C8 (Homo sapiens, UniProt P10632).
T1 sequence (P10632 1-490): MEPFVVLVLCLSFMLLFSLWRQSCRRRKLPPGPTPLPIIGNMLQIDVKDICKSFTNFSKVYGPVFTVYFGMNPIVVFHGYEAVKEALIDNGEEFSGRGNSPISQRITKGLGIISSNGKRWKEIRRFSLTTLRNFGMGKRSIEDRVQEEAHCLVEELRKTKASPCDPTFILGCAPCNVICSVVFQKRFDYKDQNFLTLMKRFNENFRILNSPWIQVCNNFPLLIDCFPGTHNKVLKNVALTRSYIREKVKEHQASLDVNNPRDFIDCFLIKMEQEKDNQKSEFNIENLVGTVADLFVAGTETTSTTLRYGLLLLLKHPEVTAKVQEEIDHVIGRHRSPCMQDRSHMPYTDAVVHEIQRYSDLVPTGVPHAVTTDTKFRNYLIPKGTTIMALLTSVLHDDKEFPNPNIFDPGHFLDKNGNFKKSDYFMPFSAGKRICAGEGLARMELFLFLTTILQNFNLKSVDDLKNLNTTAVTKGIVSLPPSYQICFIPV
As to the kind of experiment: Clinical drug-drug interaction study in healthy volunteers: effect of relacorilant on plasma pioglitazone (CYP2C8 substrate). As to the method:
An open-label, crossover study was conducted in healthy subjects to determine the effect of relacorilant on the plasma exposure of midazolam, a known substrate of CYP3A4, and pioglitazone, a known substrate of CYP2C8. A single dose of midazolam 2.5 mg was administered alone and intensive pharmacokinetic (PK) samples were collected before dosing (0 hour) and at 0.25, 0.5, 1, 1.5, 2, 4, 6, 8, 12, 16, and 24 hours post-dose. On the following day, a single dose of 15 mg of pioglitazone was administered alone and intensive PK samples were collected before dosing (0 hour) and at 0.5, 1, 1.5, 2, 2.5, 3, 4, 6, 8, 12, 18, 24, 36, 48, 60, and 72 hours post-dose. Relacorilant 350 mg was then administered once a day for 9 consecutive days. On the tenth day of once-daily relacorilant dosing, a single dose of midazolam 2.5 mg was administered in combination with relacorilant 350 mg and intensive PK samples were again collected at pre-dose though 24 hours post-dose. On the following day, a single dose of 15 mg of pioglitazone was administered in combination with relacorilant 350 mg and intensive pharmacokinetic (PK) samples were again collected at pre-dose through 72 hours post-dose. The plasma concentrations of midazolam and its metabolite, 1-OH midazolam, and pioglitazone and its metabolite, pioglitazone M4 were evaluated by validated bioanalytical assays on each of dosing occasions of midazolam or pioglitazone.

The target of series [3] is T1, CYP2C8. As to the kind of experiment: In vitro CYP inhibition assay, Assay 1 (3-CYP mix). It counts as in vitro ADME. Details: from tissue; host or cells: healthy human subjects, in vivo (endogenous enzyme). To be noted: CYP2C8 expressed in E. coli, substrate amodiaquine, 10 min incubation, 37° C., pH 7.4.
Protocol: Cytochrome P450 (CYP) isoforms CYP2B6, CYP2C8 and CYP3A5, heterologously expressed in E. coli, were obtained from Cypex and mixed to produce a 3-CYP mix. […] A selective and FDA accepted substrate for each isoform was present in the reaction at a concentration around its Km.
(§1) The CYP mix and a CYP substrate cocktail were added and the tubes warmed for 3 minutes whilst mixing on a BioShake IQ (37° C., 1500 rpm). NADPH (final concentration 1 mM) was added and the mixture was incubated for 10 minutes. Methanol containing an internal standard (1 μM tolbutamide) was then added to all samples, and these were mixed and placed at −20° C. for ≥1 hour to quench the reaction and allow protein to precipitate.
All samples were centrifuged (2500×g, 20 minutes, 4° C.). The supernatants were transferred to a fresh 96 well plate, compatible with an autosampler. The plate was sealed with a pre-slit silicone mat and the metabolites were analyzed by LC-MS/MS.
Control CYP inhibitors (IC50—appropriate concentration range, final assay concentration 1% DMSO) were added as a cocktail. […]
In Assay 1, the final concentration of the 3-CYP mix was 18 pmol/mL for CYP2B6 (where pmol is picomoles), 1 pmol/mL for CYP2C and 5 pmol/mL for CYP3A5. […] The metabolites measured were: CYP2B6, hydroxybupropion; CYP2C8, N-desethyl amodiaquine; CYP3A5, 1′-hydroxymidazolam. […]
In series [4] the target is T2, CYP3A4 (Homo sapiens, UniProt P08684). As to the kind of experiment: In vitro CYP inhibition assay, Assay 2 (5-CYP mix). Particulars: CYP3A4 expressed in E. coli, substrate midazolam, 10 min incubation, 37° C., pH 7.4. It counts as in vitro ADME. Also noted: from tissue; host or cells: healthy human subjects, in vivo (endogenous enzyme).
Protocol: In a separate assay, isoforms for CYP1A2, CYP2C9, CYP2C19, CYP2D6, and CYP3A4 heterologously expressed in E. coli and obtained from Cypex as a custom made mixture of 5 isoforms. A selective and FDA accepted substrate for each isoform was present in the reaction at a concentration around its Km.
as §1
All samples were centrifuged (2500×g, 20 minutes, 4° C.). […] The plate was sealed with a pre-slit silicone mat and the metabolites were analyzed by LC-MS/MS. […]
In Assay 2, the final concentration of the 5-CYP mix was 32.5 pmol/ml for each of the enzymes evaluated (i.e., CYP1A2, CYP2C9, CYP2C19, CYP2D6, and CYP3A4). […]
In Assay 2, the CYP substrate cocktail comprised the following components: CYP1A2, tacrine; CYP2C9, diclofenac; CYP2C19, (S)mephenytoin; CYP2D6, bufuralol; CYP3A4, midazolam. The metabolites measured were: CYP1A2, 1-hydroxytacrine; CYP2C9, 4′-hydroxydiclofenac; CYP2C19, 4′-hydroxymephenytoin; CYP2D6, hydroxybufuralol; CYP3A4, 1′-hydroxymidazolam. […]
Series [5] has as its target T2, CYP3A4. Particulars: for AUC0-tz, Ratio of Geometric LSMs (%) / AUCinf, Ratio of Geometric LSMs (%) / Cmax, Ratio of Geometric LSMs (%): 100 * Test/Reference, midazolam with 350 mg relacorilant (Day 14) vs midazolam alone (Day 1).
Protocol: (§2) An open-label, crossover study was conducted in healthy subjects to determine the effect of relacorilant on the plasma exposure of midazolam, a known substrate of CYP3A4, and pioglitazone, a known substrate of CYP2C8. A single dose of midazolam 2.5 mg was administered alone and intensive pharmacokinetic (PK) samples were collected before dosing (0 hour) and at 0.25, 0.5, 1, 1.5, 2, 4, 6, 8, 12, 16, and 24 hours post-dose. […] Relacorilant 350 mg was then administered once a day for 9 consecutive days. On the tenth day of once-daily relacorilant dosing, a single dose of midazolam 2.5 mg was administered in combination with relacorilant 350 mg and intensive PK samples were again collected at pre-dose though 24 hours post-dose.
In series [6] the target is T2, CYP3A4. As to the kind of experiment: clinical. Particulars: in vivo, po, 2.5 mg.
Protocol: as §2
The mark [7] stands for this setting: 100 * Test/Reference, pioglitazone with 350 mg relacorilant (Day 15) vs pioglitazone alone (Day 2).
Where [8] appears, read: plasma, healthy subjects, single oral 2.5 mg midazolam hydrochloride alone, Day 1.
[9] abbreviates: plasma, healthy subjects, single oral 2.5 mg midazolam hydrochloride with 350 mg relacorilant, Day 14.

T2 sequence (P08684 whole entry): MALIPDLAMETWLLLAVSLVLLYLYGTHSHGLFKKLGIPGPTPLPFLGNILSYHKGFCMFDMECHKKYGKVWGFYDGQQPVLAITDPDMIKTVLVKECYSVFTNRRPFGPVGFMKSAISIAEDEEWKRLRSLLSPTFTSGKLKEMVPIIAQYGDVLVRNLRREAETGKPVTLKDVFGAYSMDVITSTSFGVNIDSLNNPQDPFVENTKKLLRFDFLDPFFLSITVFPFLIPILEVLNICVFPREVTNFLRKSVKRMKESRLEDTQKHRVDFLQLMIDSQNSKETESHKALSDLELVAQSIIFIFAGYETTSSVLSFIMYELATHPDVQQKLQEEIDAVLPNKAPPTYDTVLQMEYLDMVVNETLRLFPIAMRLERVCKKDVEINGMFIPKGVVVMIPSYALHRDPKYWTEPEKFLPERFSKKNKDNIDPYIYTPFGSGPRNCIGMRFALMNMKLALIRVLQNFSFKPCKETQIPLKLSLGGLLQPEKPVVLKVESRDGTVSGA

For `CC(=O)O[C@H]1C(=O)[C@@]2(C)[C@H]([C@H](OC(=O)c3ccccc3)[C@]3(O)C[C@H](OC(=O)[C@H](O)[C@@H](NC(=O)c4ccccc4)c4ccccc4)C(C)=C1C3(C)C)[C@]1(OC(C)=O)CO[C@@H]1C[C@@H]2O` [paclitaxel], the “increase in plasma levels/exposure (AUC) when co-administered with relacorilant, relative to alone” value in series [1] is “about 80%”.

Turning to `CCc1ccc(CCOc2ccc(CC3SC(=O)NC3=O)cc2)nc1` (stereo not drawn) [Pioglitazone, pioglitazone], at CYP2C8 [2] (setting [7]), the “AUC0-tz, Ratio of Geometric LSMs (%)” value came out at 74.71%; the “AUCinf, Ratio of Geometric LSMs (%)” value came to 74.83%; the “Cmax, Ratio of Geometric LSMs (%)” value was determined as 77.82%. Moreover, the “change in plasma exposure/concentration when administered with relacorilant” value at CYP2C8 [2] (healthy volunteers, once daily relacorilant 350 mg, pioglitazone 15 mg) was “no increase; also recorded: did not increase”. On CYP2C8 [2] (human, plasma, po, 15 mg), the AUC(0-inf) turned out to be 5410 ng·h/mL, the AUC(0-t) was found to be 5290 ng·h/mL and the Cmax came out at 484 ng/mL.

On to `Cn1cc(S(=O)(=O)N2CCC3=Cc4c(cnn4-c4ccc(F)cc4)C[C@]3(C(=O)c3cc(C(F)(F)F)ccn3)C2)cn1` [relacorilant, (R)-(1-(4-fluorophenyl)-6-((1-methyl-1H-pyrazol-4-yl)sulfonyl)-4,4a,5,6,7,8-hexahydro-1H-pyrazolo[3,4-g]isoquinolin-4a-yl)(4-(trifluoromethyl)pyridine-2-yl)methanone], for which, at CYP2C8 [2] (healthy subjects, once daily relacorilant 350 mg, probe pioglitazone), the “inhibition of CYP2C8 in vivo” value is listed as “does not inhibit”. The results for the IC50 against CYP2C8 [3] and against CYP3A4 [4] were 210 nM and 1320 nM, respectively.

Take `CC(O)c1ccc(CCOc2ccc(CC3SC(=O)NC3=O)cc2)nc1` (stereo not drawn) [Pioglitazone M4]: at CYP2C8 [2] (human, in vivo, po, 15 mg), the “AUC0-tz, Geometric LSM, Reference (Day 2) Treatment B” value worked out at 10460 ng·h/mL; the “AUCinf, Geometric LSM, Reference (Day 2) Treatment B” value was determined as 12890 ng·h/mL; the “Cmax, Geometric LSM, Reference (Day 2) Treatment B” value is 237.3 ng/mL.

`OCc1ncc2n1-c1ccc(Cl)cc1C(c1ccccc1F)=NC2` [1-OH midazolam]: at CYP3A4 [5], the “AUC0-tz, Ratio of Geometric LSMs (%)” value was 796.64%; the “AUCinf, Ratio of Geometric LSMs (%)” value is on record as 814.51%; the “Cmax, Ratio of Geometric LSMs (%)” value worked out at 164.86%. At CYP3A4 [5] (setting [8]), the “AUC0-tz, Geometric LSM, Reference (Day 1) Treatment A” value amounted to 9.360 ng·h/mL; the “AUCinf, Geometric LSM, Reference (Day 1) Treatment A” value was 10.28 ng·h/mL; the “Cmax, Geometric LSM, Reference (Day 1) Treatment A” value came out at 4.038 ng/mL. Besides, on CYP3A4 [5] (setting [9]), the “AUC0-tz, Geometric LSM, Test (Day 14) Treatment D” value worked out at 74.56 ng·h/mL; the “AUCinf, Geometric LSM, Test (Day 14) Treatment D” value was found to be 83.72 ng·h/mL; the “Cmax, Geometric LSM, Test (Day 14) Treatment D” value is 6.657 ng/mL.

`Cc1ncc2n1-c1ccc(Cl)cc1C(c1ccccc1F)=NC2` [Midazolam, midazolam]: at CYP3A4 [5], the “AUC0-tz, Ratio of Geometric LSMs (%)” value is recorded as 878.43%; the “AUCinf, Ratio of Geometric LSMs (%)” value is given as 892.81%; the “Cmax, Ratio of Geometric LSMs (%)” value amounted to 310.98%. Moreover, the “increase in plasma exposure (AUCinf) when administered with relacorilant, relative to midazolam alone” value on CYP3A4 [5] (healthy subjects, once daily relacorilant 350 mg) was 8 fold and > 8 fold. Also, at CYP3A4 [6], the AUC(0-inf) turned out to be 33 ng·h/mL, the AUC(0-t) was found to be 30.9 ng·h/mL and the Cmax is 11.8 ng/mL.
